Assay results from the supplement of paper PMC10307832.

What was measured:
Experiment in all cases: relative viability (nuclei count vs DMSO), 5 days (fraction); higher = more cells survive
A-427 = tested on: A-427
Outline: (§1)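 Lung cancer cell lines, seeded in 1536-well plates, were treated the following day by pin tool with a single drug or with five library-drug doses (not always all listed) in √10 steps on top of a fixed anchor-drug dose. Cells were fixed and nuclei stained in one step after 5 days, and nuclei were counted. Relative viability is the nuclei count for treated wells divided by that for vehicle wells, reported as medians of duplicate plates.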

ChaGo-K-1 = tested on: ChaGo-K-1
Outline: as §1

EKVX = tested on: EKVX
Outline: as §1

H3255 = tested on: H3255
Outline: as §1

LK-2 = tested on: LK-2
Outline: as §1

NCI-H1355 = tested on: NCI-H1355
Outline: as §1

NCI-H1650 = tested on: NCI-H1650
Outline: as §1

NCI-H1666 = tested on: NCI-H1666
Outline: as §1

NCI-H1755 = tested on: NCI-H1755
Outline: as §1

NCI-H1944 = tested on: NCI-H1944
Outline: as §1

NCI-H2085 = tested on: NCI-H2085
Outline: as §1

NCI-H2228 = tested on: NCI-H2228
Outline: as §1

NCI-H2347 = tested on: NCI-H2347
Outline: as §1

NCI-H3122 = tested on: NCI-H3122
Outline: as §1

NCI-H322M = tested on: NCI-H322M
Outline: as §1

NCI-H358 = tested on: NCI-H358
Outline: as §1

NCI-H441 = tested on: NCI-H441
Outline: as §1

NCI-H460 = tested on: NCI-H460
Outline: as §1

NCI-H520 = tested on: NCI-H520
Outline: as §1

NCI-H596 = tested on: NCI-H596
Outline: as §1

NCI-H650 = tested on: NCI-H650
Outline: as §1

NCI-H838 = tested on: NCI-H838
Outline: as §1

SW 1573 = tested on: SW 1573
Outline: as §1

`Cc1cnc(-c2cnc(NCCNc3ccc(C#N)cn3)nc2-c2ccc(Cl)cc2Cl)[nH]1` + Cc1nc(Nc2ncc(C(=O)Nc3c(C)cccc3Cl)s2)cc(N2CCN(CCO)CC2)n1 [Dasatinib] (partner 0.075 µM) was tested, and the relative viability (A-427; first compound 0.08 µM) was 0.747, the relative viability (A-427; first compound 0.253 µM) was 0.589 and the relative viability (A-427; first compound 0.8 µM) was 0.738. For the same compound, the relative viability (A-427; first compound 2.53 µM) was 0.682, the relative viability (ChaGo-K-1; first compound 0.08 µM) was 0.607 and the relative viability (ChaGo-K-1; first compound 0.253 µM) was 0.462. The relative viability (ChaGo-K-1; first compound 0.8 µM) was 0.512, the relative viability (ChaGo-K-1; first compound 2.53 µM) was 0.515 and the relative viability (EKVX; first compound 0.08 µM) was 0.608. For the same compound, the relative viability (EKVX; first compound 0.253 µM) was 0.518, the relative viability (EKVX; first compound 0.8 µM) was 0.494 and the relative viability (EKVX; first compound 2.53 µM) was 0.493. It also gave a relative viability (H3255; first compound 0.08 µM) of 0.466, a relative viability (H3255; first compound 0.253 µM) of 0.445 and a relative viability (H3255; first compound 2.53 µM) of 0.388. The relative viability (LK-2; first compound 0.08 µM) was 0.387, the relative viability (LK-2; first compound 0.253 µM) was 0.302 and the relative viability (LK-2; first compound 0.8 µM) was 0.39. The relative viability (NCI-H1355; first compound 0.08 µM) was 0.749, the relative viability (NCI-H1355; first compound 0.253 µM) was 0.664 and the relative viability (NCI-H1355; first compound 0.8 µM) was 0.746. It also gave a relative viability (NCI-H1355; first compound 2.53 µM) of 0.689, a relative viability (NCI-H1650; first compound 0.08 µM) of 0.31 and a relative viability (NCI-H1650; first compound 0.253 µM) of 0.345. The relative viability (NCI-H1650; first compound 0.8 µM) was 0.295, the relative viability (NCI-H1650; first compound 2.53 µM) was 0.312 and the relative viability (NCI-H1666; first compound 0.08 µM) was 0.897. It also gave a relative viability (NCI-H1666; first compound 0.253 µM) of 0.671, a relative viability (NCI-H1666; first compound 0.8 µM) of 0.845 and a relative viability (NCI-H1666; first compound 2.53 µM) of 0.7. For the same compound, the relative viability (NCI-H1755; first compound 0.08 µM) was 0.435, the relative viability (NCI-H1755; first compound 0.253 µM) was 0.427 and the relative viability (NCI-H1755; first compound 0.8 µM) was 0.398. It also gave a relative viability (NCI-H1755; first compound 2.53 µM) of 0.399, a relative viability (NCI-H1944; first compound 0.08 µM) of 0.24 and a relative viability (NCI-H1944; first compound 0.8 µM) of 0.251. For the same compound, the relative viability (NCI-H1944; first compound 2.53 µM) was 0.316, the relative viability (NCI-H2085; first compound 0.08 µM) was 0.247 and the relative viability (NCI-H2085; first compound 0.253 µM) was 0.239. For the same compound, the relative viability (NCI-H2085; first compound 0.8 µM) was 0.21, the relative viability (NCI-H2085; first compound 2.53 µM) was 0.239 and the relative viability (NCI-H2228; first compound 0.08 µM) was 0.548. It also gave a relative viability (NCI-H2228; first compound 0.253 µM) of 0.554, a relative viability (NCI-H2228; first compound 0.8 µM) of 0.494 and a relative viability (NCI-H2228; first compound 2.53 µM) of 0.424. For the same compound, the relative viability (NCI-H2347; first compound 0.08 µM) was 0.279, the relative viability (NCI-H2347; first compound 0.253 µM) was 0.309 and the relative viability (NCI-H2347; first compound 0.8 µM) was 0.283. For the same compound, the relative viability (NCI-H2347; first compound 2.53 µM) was 0.333, the relative viability (NCI-H3122; first compound 0.08 µM) was 0.859 and the relative viability (NCI-H3122; first compound 0.8 µM) was 0.714. It also gave a relative viability (NCI-H3122; first compound 2.53 µM) of 0.528, a relative viability (NCI-H322M; first compound 0.08 µM) of 0.246 and a relative viability (NCI-H322M; first compound 0.253 µM) of 0.281. It also gave a relative viability (NCI-H322M; first compound 0.8 µM) of 0.248, a relative viability (NCI-H322M; first compound 2.53 µM) of 0.274 and a relative viability (NCI-H358; first compound 0.08 µM) of 0.157. It also gave a relative viability (NCI-H358; first compound 0.253 µM) of 0.17, a relative viability (NCI-H358; first compound 0.8 µM) of 0.207 and a relative viability (NCI-H358; first compound 2.53 µM) of 0.189. It also gave a relative viability (NCI-H441; first compound 0.08 µM) of 0.672, a relative viability (NCI-H441; first compound 0.253 µM) of 0.578 and a relative viability (NCI-H441; first compound 0.8 µM) of 0.385. For the same compound, the relative viability (NCI-H441; first compound 2.53 µM) was 0.403, the relative viability (NCI-H460; first compound 0.08 µM) was 0.543 and the relative viability (NCI-H460; first compound 0.253 µM) was 0.404. For the same compound, the relative viability (NCI-H460; first compound 0.8 µM) was 0.557, the relative viability (NCI-H460; first compound 2.53 µM) was 0.454 and the relative viability (NCI-H520; first compound 0.08 µM) was 0.219. It also gave a relative viability (NCI-H520; first compound 0.253 µM) of 0.186, a relative viability (NCI-H520; first compound 0.8 µM) of 0.245 and a relative viability (NCI-H520; first compound 2.53 µM) of 0.299. The relative viability (NCI-H596; first compound 0.08 µM) was 0.601, the relative viability (NCI-H596; first compound 0.253 µM) was 0.656 and the relative viability (NCI-H596; first compound 0.8 µM) was 0.624. For the same compound, the relative viability (NCI-H596; first compound 2.53 µM) was 0.607, the relative viability (NCI-H650; first compound 0.08 µM) was 0.497 and the relative viability (NCI-H650; first compound 0.253 µM) was 0.462. It also gave a relative viability (NCI-H650; first compound 0.8 µM) of 0.511, a relative viability (NCI-H650; first compound 2.53 µM) of 0.495 and a relative viability (NCI-H838; first compound 0.08 µM) of 0.276. It also gave a relative viability (NCI-H838; first compound 0.253 µM) of 0.307, a relative viability (NCI-H838; first compound 0.8 µM) of 0.306 and a relative viability (NCI-H838; first compound 2.53 µM) of 0.363. It also gave a relative viability (SW 1573; first compound 0.08 µM) of 0.687, a relative viability (SW 1573; first compound 0.253 µM) of 0.395 and a relative viability (SW 1573; first compound 0.8 µM) of 0.493. It also gave a relative viability (SW 1573; first compound 2.53 µM) of 0.168.
